The numbers were not newly measured in PubChem BioAssay AID1259409 (Chemical Carcinogenesis Research Information System (CCRIS), 2018), which cites them from elsewhere.

Molecules are shown by their SMILES.

The data set has as its system rodent chemically induced tumor inhibition, incidence and multiplicity. As to the kind of experiment: CCRIS tumor inhibitor studies. Conditions: Dose [Inhibitor]: 0, Species: RAT.

In the case of `NCCS`, the “tumour outcome (control, treated, inhibition, significance)” value is 18/25 (72%), 17/25 (68%), 5%, not significant (Carcinogen: 7,12-DIMETHYLBENZ[A]ANTHRACENE, 57-97-6, 0.015 MOL/KG DIET BEGINNING 2 WK PRIOR TO CARCINOGEN AND CONTINUED FOR STUDY DURATION (STUDY DURATION: 25 WK), Route [Inhibitor]: ORAL, Strain/Sex: CD-1/FEMALE, Target Tissue: Type of Lesion: MAMMARY GLAND: ADENOCARCINOMA, Dose [Carcinogen]: 10 MG ONCE, Promoter: NONE USED); 18/25 (72%), 12/25 (48%), 33%, not significant (Carcinogen: 7,12-DIMETHYLBENZ[A]ANTHRACENE, 57-97-6, 0.03 MOL/KG DIET BEGINNING 2 WK PRIOR TO CARCINOGEN AND CONTINUED FOR STUDY DURATION (STUDY DURATION: 25 WK), Route [Inhibitor]: ORAL, Strain/Sex: CD-1/FEMALE, Target Tissue: Type of Lesion: MAMMARY GLAND: ADENOCARCINOMA, Dose [Carcinogen]: 10 MG ONCE, Promoter: NONE USED); 18/25 (72%), 13/25 (52%), 28%, not significant (Carcinogen: 7,12-DIMETHYLBENZ[A]ANTHRACENE, 57-97-6, 0.06 MOL/KG DIET BEGINNING 2 WK PRIOR TO CARCINOGEN AND CONTINUED FOR STUDY DURATION (STUDY DURATION: 25 WK), Route [Inhibitor]: ORAL, Strain/Sex: CD-1/FEMALE, Target Tissue: Type of Lesion: MAMMARY GLAND: ADENOCARCINOMA, Dose [Carcinogen]: 10 MG ONCE, Promoter: NONE USED); 17/18 (94%), 7/17 (41%), 56%, p<0.01 (Carcinogen: AZOXYMETHANE, 25843-45-2, 25 MG/KG IN 0.9% SODIUM CHLORIDE 1/2 D FOR 40 WK ADMINISTERED CONCURRENTLY WITH CARCINOGEN (STUDY DURATION: 40 WK), Route [Inhibitor]: SUBCUTANEOUS, Strain/Sex: WISTAR, Target Tissue: Type of Lesion: COLON: TUMOR, Dose [Carcinogen]: 7.4 MG/KG IN 0.9% SODIUM CHLORIDE SOLUTION 1/WK FOR 10 WK, Promoter: NONE USED); 13/18 (72%), 5/20 (25%), 65%, not calculated (Carcinogen: N-METHYL-N'-NITRO-N-NITROSOGUANIDINE, 70-25-7, 5 MG/KG 1/2 D ADMINISTERED SIMULTANEOUSLY WITH 30 MG/KG SULPIRIDE BEGINNING 1 WK POST CARCINOGEN TREATMENT AND CONTIN, Route [Inhibitor]: SUBCUTANEOUS, Strain/Sex: WISTAR/MALE, Target Tissue: Type of Lesion: STOMACH: ADENOCARCINOMA, Dose [Carcinogen]: 50 UG/ML IN DRINKING WATER FOR 25 WK, Promoter: NONE USED); 13/18 (72%), 13/20 (65%), 10%, not significant (Carcinogen: N-METHYL-N'-NITRO-N-NITROSOGUANIDINE, 70-25-7, 5 MG/KG 1/2 D BEGINNING 1 WK POST CARCINOGEN TREATMENT AND CONTINUING FOR DURATION OF STUDY (STUDY DURATION: 52 WK), Route [Inhibitor]: SUBCUTANEOUS, Strain/Sex: WISTAR/MALE, Target Tissue: Type of Lesion: STOMACH: ADENOCARCINOMA, Dose [Carcinogen]: 50 UG/ML IN DRINKING WATER FOR 25 WK, Promoter: NONE USED). For the same compound, the “tumour outcome (control, treated, inhibition, significance)” value (Carcinogen: N-METHYL-N'-NITRO-N-NITROSOGUANIDINE, 70-25-7, 5 MG/KG IN 1 ML/KG OLIVE OIL 1/2 D FOR STUDY DURATION BEGINNING POST CARCINOGEN TREATMENT (STUDY DURATION: 52 WK), Route [Inhibitor]: SUBCUTANEOUS, Strain/Sex: WISTAR/MALE, Target Tissue: Type of Lesion: GLANDULAR STOMACH: ADENOCARCINOMA, Dose [Carcinogen]: 50 UG/ML DRINKING WATER FOR 25 WK) was 13/18 (72%), 13/20 (65%), 10%, not significant; the “tumour outcome (control, treated, inhibition, significance)” value (Carcinogen: N-METHYL-N'-NITRO-N-NITROSOGUANIDINE, 70-25-7, 25 MG/KG 1/2 D ADMINISTERED SIMULTANEOUSLY WITH 30 MG/KG SULPIRIDE BEGINNING 1 WK POST CARCINOGEN TREATMENT AND CONTI, Route [Inhibitor]: SUBCUTANEOUS, Strain/Sex: WISTAR/MALE, Target Tissue: Type of Lesion: STOMACH: ADENOCARCINOMA, Dose [Carcinogen]: 50 UG/ML IN DRINKING WATER FOR 25 WK, Promoter: NONE USED) is recorded as 13/18 (72%), 6/20 (30%), 58%, not calculated; the “tumour outcome (control, treated, inhibition, significance)” value (Carcinogen: N-METHYL-N'-NITRO-N-NITROSOGUANIDINE, 70-25-7, 25 MG/KG 1/2 D BEGINNING 1 WK POST CARCINOGEN TREATMENT AND CONTINUING FOR DURATION OF STUDY (STUDY DURATION: 52 WK), Route [Inhibitor]: SUBCUTANEOUS, Strain/Sex: WISTAR/MALE, Target Tissue: Type of Lesion: STOMACH: ADENOCARCINOMA, Dose [Carcinogen]: 50 UG/ML IN DRINKING WATER FOR 25 WK, Promoter: NONE USED) is reported as 13/18 (72%), 6/20 (30%), 58%, p<0.05; the “tumour outcome (control, treated, inhibition, significance)” value (Carcinogen: N-METHYL-N'-NITRO-N-NITROSOGUANIDINE, 70-25-7, 25 MG/KG IN 0.9% SALINE 1/2 D BEGINNING 1 WK POST LAST CARCINOGEN DOSE AND CONTINUING FOR DURATION OF STUDY (STUDY DU, Route [Inhibitor]: SUBCUTANEOUS, Strain/Sex: WISTAR/MALE, Target Tissue: Type of Lesion: STOMACH: ADENOCARCINOMA, Dose [Carcinogen]: 100 UG/ML IN DRINKING WATER FOR 25 WK, Promoter: NONE USED) was 16/20 (80%), 10/22 (45%), 44%, p<0.05.
